Patent US9284333B2, “Fused pyrroledicarboxamides and their use as pharmaceuticals” (SANOFI, priority 2012, dated 2016)

Target: Human TASK-1 channels (Homo sapiens (Human), UniProt O14649)
Test: Determination of the activity on the TASK-1 channel in Xenopus oocytes (two-microelectrode voltage clamp)
Assay type: cell-based
Details: for IC50: human TASK-1 expressed in Xenopus oocytes, room temperature, read-out: IC50 value for TASK-1 inhibition; for inhibition at 5 µM: compound concentration 5 μM
Outline: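 Xenopus oocytes were injected with human TASK-1 cRNA and recorded two days later by two-microelectrode voltage clamp, holding at −90 mV with 500 ms steps to 40 mV. Superfusion used ND96, pH 7.4, at room temperature, with rising compound concentrations; percentage inhibition of control current was fitted to a dose-response curve for IC50.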

Chain of Human TASK-1 channels (O14649 whole entry): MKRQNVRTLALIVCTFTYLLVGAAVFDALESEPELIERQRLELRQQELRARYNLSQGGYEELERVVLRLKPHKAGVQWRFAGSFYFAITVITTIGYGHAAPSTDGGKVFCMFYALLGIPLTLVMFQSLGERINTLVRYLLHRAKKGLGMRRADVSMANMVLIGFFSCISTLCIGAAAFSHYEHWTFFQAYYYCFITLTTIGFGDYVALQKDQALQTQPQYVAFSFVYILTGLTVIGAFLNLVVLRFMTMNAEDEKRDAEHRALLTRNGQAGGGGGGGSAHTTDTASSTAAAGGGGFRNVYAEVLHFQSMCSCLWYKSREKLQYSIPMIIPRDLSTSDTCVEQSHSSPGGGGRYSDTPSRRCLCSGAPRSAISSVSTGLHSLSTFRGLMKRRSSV

SMILES | IC50 [nM] | inhibition at 5 µM [%]
CC[C@@H]1CCCN1C(=O)c1cc(C(=O)N[C@H](CC)c2ccccc2)c2n1CCOC2 (racemic) [16fd, 6-((R)-2-Ethyl-pyrrolidine-1-carbonyl)-3,4-dihydro-1H-pyrrolo[2,1-c][1,4]oxazine-8-carboxylic acid ((R)-1-phenyl-propyl)-amide] | 730 | –
C[C@@H](NC(=O)c1cc(C(=O)N2CCC[C@@H]2C)n2c1COCC2)c1ccc(Cl)cc1 [16as, 6-((S)-2-Methyl-pyrrolidine-1-carbonyl)-3,4-dihydro-1H-pyrrolo[2,1-c][1,4]oxazine-8-carboxylic acid [(R)-1-(4-chloro-phenyl)-ethyl]-amide] | – | 87
CC[C@@H](NC(=O)c1cc(C(=O)N2CCCCC2)n2c1CCCC2)c1ccccc1 [16mi, 3-(Piperidine-1-carbonyl)-5,6,7,8-tetrahydro-indolizine-1-carboxylic acid ((R)-1-phenyl-propyl)-amide] | 590 | –
C[C@@H](NC(=O)c1cc(C(=O)N[C@H](C)c2ncccn2)c2n1CCOC2)c1ccc(F)cc1 (racemic) [16dy, 3,4-Dihydro-1H-pyrrolo[2,1-c][1,4]oxazine-6,8-dicarboxylic acid 6-{[(R)-1-(4-fluoro-phenyl)-ethyl]-amide} 8-[((R)-1-pyrimidin-2-yl-ethyl)-amide]] | 1500 | –
CC[C@@H](NC(=O)c1cc(C(=O)NCC(C)(C)O)n2c1COCC2)c1ccccc1 [16jd, 3,4-Dihydro-1H-pyrrolo[2,1-c][1,4]oxazine-6,8-dicarboxylic acid 6-[(2-hydroxy-2-methyl-propyl)-amide] 8-[((R)-1-phenyl-propyl)-amide]] | 2500 | –
CC[C@@H](NC(=O)c1cc(C(=O)NCc2cccc(C(=O)OC)c2)n2c1COCC2)c1ccccc1 [16iq, 3-({[8-((R)-1-Phenyl-propylcarbamoyl)-3,4-dihydro-1H-pyrrolo[2,1-c][1,4]oxazine-6-carbonyl]-amino}-methyl)-benzoic acid methyl ester] | 330 | –
CC[C@@H](NC(=O)c1cc(C(=O)N2CCC[C@@H]2C)n2c1COCC2)c1ccc(C#N)s1 [16rd, 6-((S)-2-Methyl-pyrrolidine-1-carbonyl)-3,4-dihydro-1H-pyrrolo[2,1-c][1,4]oxazine-8-carboxylic acid [(R)-1-(5-cyano-thiophen-2-yl)-propyl]-amide] | 450 | –
CC[C@H](NC(=O)c1cc(C(=O)N[C@H](CC)c2ccc(C(F)(F)F)nc2)c2n1CCOC2)c1ccccc1 [16kf, 3,4-Dihydro-1H-pyrrolo[2,1-c][1,4]oxazine-6,8-dicarboxylic acid 6-[((S)-1-phenyl-propyl)-amide] 8-{[(R)-1-(6-trifluoromethyl-pyridin-3-yl)-propyl]-amide}] | – | 90
C[C@@H](NC(=O)c1cc(C(=O)NCC2CC2)c2n1CCOC2)c1ccc(F)cc1 [16ds, 3,4-Dihydro-1H-pyrrolo[2,1-c][1,4]oxazine-6,8-dicarboxylic acid 8-cyclopropylmethyl-amide 6-{[(R)-1-(4-fluoro-phenyl)-ethyl]-amide}] | – | 89
CC[C@@H](NC(=O)c1cc(C(=O)N2CCOC[C@@H]2C)c2n1CCOC2)c1ccccc1 [16kh, 8-((S)-3-Methyl-morpholine-4-carbonyl)-3,4-dihydro-1H-pyrrolo[2,1-c][1,4]oxazine-6-carboxylic acid ((R)-1-phenyl-propyl)-amide] | 990 | –
CC[C@@H](NC(=O)c1cc(C(=O)N2CCC[C@@H]2c2ccccn2)n2c1COCC2)c1ccccc1 [16fk, 6-((R)-2-Pyridin-2-yl-pyrrolidine-1-carbonyl)-3,4-dihydro-1H-pyrrolo[2,1-c][1,4]oxazine-8-carboxylic acid ((R)-1-phenyl-propyl)-amide] | 290 | –
CC[C@@H](NC(=O)c1cc(C(=O)NCc2ccc(F)cc2F)c2n1CCOC2)c1cnccn1 [16ns, 3,4-Dihydro-1H-pyrrolo[2,1-c][1,4]oxazine-6,8-dicarboxylic acid 8-(2,4-difluoro-benzylamide) 6-[((R)-1-pyrazin-2-yl-propyl)-amide]] | 3100 | –
CC[C@@H](NC(=O)c1cc(C(=O)NCC2(O)CC2)n2c1COCC2)c1ccccc1 [16hi, 3,4-Dihydro-1H-pyrrolo[2,1-c][1,4]oxazine-6,8-dicarboxylic acid 6-[(1-hydroxy-cyclopropylmethyl)-amide] 8-[((R)-1-phenyl-propyl)-amide]] | 1100 | –
CC(C)[C@@H](NC(=O)c1cc(C(=O)NCc2ncco2)c2n1CCOC2)c1ccc(F)cc1 [16ll, 3,4-Dihydro-1H-pyrrolo[2,1-c][1,4]oxazine-6,8-dicarboxylic acid 6-{[(R)-1-(4-fluoro-phenyl)-2-methyl-propyl]-amide} 8-[(oxazol-2-ylmethyl)-amide]] | – | 86
CC[C@@H](NC(=O)c1cc(C(=O)N[C@H](CC)c2ccc(C#N)nc2)n2c1COCC2)c1ccccc1 [16ib, 3,4-Dihydro-1H-pyrrolo[2,1-c][1,4]oxazine-6,8-dicarboxylic acid 6-{[(R)-1-(6-cyano-pyridin-3-yl)-propyl]-amide} 8-[((R)-1-phenyl-propyl)-amide]] | 1000 | –
CC[C@@H](NC(=O)c1cc(C(=O)N2CCC[C@@H]2C)n2c1COCC2)c1cccc(C#N)c1 [16aj, 6-((S)-2-Methyl-pyrrolidine-1-carbonyl)-3,4-dihydro-1H-pyrrolo[2,1-c][1,4]oxazine-8-carboxylic acid [(R)-1-(3-cyano-phenyl)-propyl]-amide] | 550 | –
CC[C@@H](NC(=O)c1cc(C(=O)N2CCOCC2)n2c1CCCC2)c1ccccc1 [16nc, 3-(Morpholine-4-carbonyl)-5,6,7,8-tetrahydro-indolizine-1-carboxylic acid ((R)-1-phenyl-propyl)-amide] | 2000 | –
CC[C@@H](NC(=O)c1cc(C(=O)N2CCC[C@@H]2C)n2c1COCC2)c1ccccc1C(F)(F)F [16s, 6-((S)-2-Methyl-pyrrolidine-1-carbonyl)-3,4-dihydro-1H-pyrrolo[2,1-c][1,4]oxazine-8-carboxylic acid [(R)-1-(2-trifluoromethyl-phenyl)-propyl]-amide] | 250 | –
CC[C@@H](NC(=O)c1cc(C(=O)N2CCCC2C(O)c2ccccc2)n2c1COCC2)c1ccccc1 (stereo partly drawn) [16fj, 6-[2-(Hydroxy-phenyl-methyl)-pyrrolidine-1-carbonyl]-3,4-dihydro-1H-pyrrolo[2,1-c][1,4]oxazine-8-carboxylic acid ((R)-1-phenyl-propyl)-amide] | – | 89

Next, values leading:

IC50 [nM] | inhibition at 5 µM [%] | SMILES
170 | – | CCOC(=O)[C@H](C)N(C)C(=O)c1cc(C(=O)N[C@H](CC)c2ccccc2)c2n1CCOC2 [16l, (S)-2-{Methyl-[8-((R)-1-phenyl-propylcarbamoyl)-3,4-dihydro-1H-pyrrolo[2,1-c][1,4]oxazine-6-carbonyl]-amino}-propionic acid ethyl ester]
210 | – | CC[C@@H](NC(=O)c1cc(C(=O)N2CCC[C@@H]2C)n2c1COCC2)c1ccnc(C(F)(F)F)c1F [16bu, 6-((S)-2-Methyl-pyrrolidine-1-carbonyl)-3,4-dihydro-1H-pyrrolo[2,1-c][1,4]oxazine-8-carboxylic acid [(R)-1-(3-fluoro-2-trifluoromethyl-pyridin-4-yl)-propyl]-amide]
93 | – | CC[C@@H](NC(=O)c1cc(C(=O)N2CCC[C@@H]2C)n2c1COCC2)c1ccc(C(F)(F)F)c(F)c1 [16bm, 6-((S)-2-Methyl-pyrrolidine-1-carbonyl)-3,4-dihydro-1H-pyrrolo[2,1-c][1,4]oxazine-8-carboxylic acid [(R)-1-(3-fluoro-4-trifluoromethyl-phenyl)-propyl]-amide]
97 | – | CC[C@@H](NC(=O)c1cc(C(=O)NCCc2ccc(F)cc2)n2c1CCCC2)c1ccccc1 [16mx, 5,6,7,8-Tetrahydro-indolizine-1,3-dicarboxylic acid 3-{[2-(4-fluoro-phenyl)-ethyl]-amide} 1-[((R)-1-phenyl-propyl)-amide]]
150 | – | CC[C@@H](NC(=O)c1cc(C(=O)N2CCC[C@@H]2C)n2c1COCC2)c1cccs1 [16rc, 6-((S)-2-Methyl-pyrrolidine-1-carbonyl)-3,4-dihydro-1H-pyrrolo[2,1-c][1,4]oxazine-8-carboxylic acid ((R)-1-thiophen-2-yl-propyl)amide]
190 | – | CC[C@@H](NC(=O)c1cc(C(=O)N[C@H](C)C(C)(C)C)n2c1COCC2)c1ccccc1 [16hr, 3,4-Dihydro-1H-pyrrolo[2,1-c][1,4]oxazine-6,8-dicarboxylic acid 8-[((R)-1-phenyl-propyl)-amide] 6-[((R)-1,2,2-trimethyl-propyl)-amide]]
210 | – | CC[C@@H](NC(=O)c1cc(C(=O)Nc2cnoc2)c2n1CCOC2)c1ccccc1 [16jv, 3,4-Dihydro-1H-pyrrolo[2,1-c][1,4]oxazine-6,8-dicarboxylic acid 8-isoxazol-4-ylamide 6-[((R)-1-phenyl-propyl)-amide]]
21 | – | CC[C@@H](NC(=O)c1cc(C(=O)N2CCC[C@@H]2C)n2c1COCC2)c1ccc(C(F)(F)F)s1 [16cf, 6-((S)-2-Methyl-pyrrolidine-1-carbonyl)-3,4-dihydro-1H-pyrrolo[2,1-c][1,4]oxazine-8-carboxylic acid [(R)-1-(5-trifluoromethyl-thiophen-2-yl)-propyl]-amide]
220 | – | CC[C@H](NC(=O)c1cc(C(=O)N[C@H](C)c2ccc(F)cc2)c2n1CCOC2)c1ccccc1 [16jp, 3,4-Dihydro-1H-pyrrolo[2,1-c][1,4]oxazine-6,8-dicarboxylic acid 8-{[(R)-1-(4-fluoro-phenyl)-ethyl]-amide} 6-[((S)-1-phenyl-propyl)-amide]]
30 | – | CC[C@@H](NC(=O)c1cc(C(=O)N2CCC[C@@H]2C)n2c1COCC2)c1ccc(Cl)c(Cl)c1 [16ci, 6-((S)-Methyl-pyrrolidine-1-carbonyl)-3,4-dihydro-1H-pyrrolo[2,1-c][1,4]oxazine-8-carboxylic acid [(R)-1-(3,4-dichloro-phenyl)-propyl]-amide]
110 | – | CC[C@@H](NC(=O)c1cc(C(=O)NCc2ccccc2)n2c1CCCC2)c1ccccc1 [16nf, 5,6,7,8-Tetrahydro-indolizine-1,3-dicarboxylic acid 3-benzylamide 1-[((R)-1-phenyl-propyl)-amide]]
